From ChEMBL document CHEMBL5260810, “Inhibition of bromodomain-containing protein 9 for the prevention of epigenetically-defined drug resistance” (Bioorg Med Chem Lett, 2017)

Assays:
Assay type in all cases: functional, cell-based
[1] = Cytotoxicity against human NCE-G 118 cells measured after 8 days; conditions: NCE-G 118, 192 h
[2] = Cytotoxicity against human Fu97 cells measured after 8 days; conditions: Fu97, 192 h
NB69 = assay: Cytotoxicity against human NB69 cells measured after 8 days; conditions: NB69, 192 h
[3] = Cytotoxicity against human OCI-M1 cells measured after 8 days; conditions: OCI-M1, 192 h
[4] = Cytotoxicity against human RMUG-S cells measured after 8 days; conditions: 192 h
[5] = Cytotoxicity against mouse JC cells measured after 8 days; conditions: 192 h
[6] = Cytotoxicity against human HEC-251 cells measured after 8 days; conditions: HEC-251, 192 h
NCI-H2052 = assay: Cytotoxicity against human NCI-H2052 cells measured after 8 days; conditions: NCI-H2052, 192 h
[7] = Cytotoxicity against human KHM-1B cells measured after 8 days; conditions: 192 h
[8] = Cytotoxicity against human HCC1482 cells measured after 8 days; conditions: HCC1482, 192 h
[9] = Cytotoxicity against human NCE-G 59 cells measured after 8 days; conditions: NCE-G 59, 192 h
PLC-PRF-5 = assay: Cytotoxicity against human PLCPRF5 cells measured after 8 days; conditions: PLC-PRF-5, 192 h
[10] = Cytotoxicity against human Karpas-620 cells measured after 8 days; conditions: Karpas-620, 192 h
[11] = Cytotoxicity against human COLO 818 cells measured after 8 days; conditions: COLO 818, 192 h
[12] = Cytotoxicity against mouse AB22 cells measured after 8 days; conditions: AB22, 192 h
[13] = Cytotoxicity against human HSC-5 cells measured after 8 days; conditions: HSC-5, 192 h
IGR-1 = assay: Cytotoxicity against human IGR-1 cells measured after 8 days; conditions: IGR-1, 192 h
CAL-54 = assay: Cytotoxicity against human CAL-54 cells measured after 8 days; conditions: CAL-54, 192 h
[14] = Cytotoxicity against human SUM52PE cells measured after 8 days; conditions: 192 h
HPAF-II = assay: Cytotoxicity against human HPAF-II cells measured after 8 days; conditions: 192 h
[15] = Cytotoxicity against human KMRC-1 cells measured after 8 days; conditions: KMRC-1, 192 h
LN-18 = assay: Cytotoxicity against human LN-18 cells measured after 8 days; conditions: LN-18, 192 h
MC-38 = assay: Cytotoxicity against mouse MC38 ovalbumin cells measured after 8 days; conditions: MC-38, 192 h
YAPC = assay: Cytotoxicity against human YAPC cells measured after 8 days; conditions: 192 h
HMV-2 cell line = assay: Cytotoxicity against human HMV-2 cell line measured after 8 days; conditions: HMV-2, 192 h
[16] = Cytotoxicity against human COLO-704 cells measured after 8 days; conditions: COLO 704, 192 h
[17] = Cytotoxicity against human NCI-H2461 cells measured after 8 days; conditions: NCI-H2461, 192 h
SNU-475 = assay: Cytotoxicity against human SNU-475 cells measured after 8 days; conditions: SNU-475, 192 h
HEp-2 = assay: Cytotoxicity against human HEp-2 cells measured after 8 days; conditions: HEp-2, 192 h
KYSE-150 cell line = assay: Cytotoxicity against human KYSE-150 cell line measured after 8 days; conditions: KYSE-150, 192 h
KMS-11 = assay: Cytotoxicity against human KMS-11 cells measured after 8 days; conditions: KMS-11, 192 h
[18] = Cytotoxicity against human HLF cells measured after 8 days; conditions: 192 h
Detroit 562 = assay: Cytotoxicity against human Detroit 562 cells measured after 8 days; conditions: Detroit 562, 192 h
[19] = Cytotoxicity against human PK-59 cells measured after 8 days; conditions: PK-59, 192 h
OAW-42 = assay: Cytotoxicity against human OAW-42 cells measured after 8 days; conditions: OAW-42, 192 h
[20] = Cytotoxicity against human Ri-1 cells measured after 8 days; conditions: Ri-1, 192 h
DOHH-2 = assay: Cytotoxicity against human DOHH-2 cells measured after 8 days; conditions: DOHH-2, 192 h
[21] = Cytotoxicity against human KPP14388 cells measured after 8 days; conditions: KPP14388, 192 h
KYSE-270 = assay: Cytotoxicity against human KYSE-270 cells measured after 8 days; conditions: KYSE-270, 192 h
[22] = Cytotoxicity against human IGR-39 cells measured after 8 days; conditions: IGR-39, 192 h
A2780 = assay: Cytotoxicity against human A2780 cells measured after 8 days; conditions: A2780, 192 h
EL4 = assay: Cytotoxicity against mouse EL4 cells measured after 8 days; conditions: EL4, 192 h
Skut1B = assay: Cytotoxicity against human Skut1B cells measured after 8 days; conditions: 192 h
[23] = Cytotoxicity against human KPR3351 cells measured after 8 days; conditions: KPR3351, 192 h
[24] = Cytotoxicity against mouse LA-4 cells measured after 8 days; conditions: LA-4, 192 h
SNU-449 = assay: Cytotoxicity against human SNU-449 cells measured after 8 days; conditions: SNU-449, 192 h
[25] = Cytotoxicity against human PK-8 cells measured after 8 days; conditions: PK-8, 192 h
[26] = Cytotoxicity against human 59M cells measured after 8 days; conditions: 192 h
[27] = Cytotoxicity against human COV362 cells measured after 8 days; conditions: COV362, 192 h
[28] = Cytotoxicity against human NCE-G 142 cells measured after 8 days; conditions: NCE-G 142, 192 h
Huh-7 = assay: Cytotoxicity against human Huh-7 cells measured after 8 days; conditions: Huh-7, 192 h
[29] = Cytotoxicity against human KCI-MOH1 cells measured after 8 days; conditions: KCI-MOH1, 192 h
RCM-1 = assay: Cytotoxicity against human RCM-1 cells measured after 8 days; conditions: RCM-1, 192 h
[30] = Cytotoxicity against human TYK-nu.CP-r cells measured after 8 days; conditions: 192 h
WM-115 = assay: Cytotoxicity against human WM-115 cells measured after 8 days; conditions: WM-115, 192 h
HuP-T4 = assay: Cytotoxicity against human HuP-T4 cells measured after 8 days; conditions: HuP-T4, 192 h
SK-N-DZ = assay: Cytotoxicity against human SK-N-DZ cells measured after 8 days; conditions: 192 h
ACHN = assay: Cytotoxicity against human ACHN cells measured after 8 days; conditions: 192 h
SNB-19 = assay: Cytotoxicity against human SNB-19 cells measured after 8 days; conditions: SNB-19, 192 h
[31] = Cytotoxicity against human Li-7 cells measured after 8 days; conditions: Li-7, 192 h
SKG-IIIa = assay: Cytotoxicity against human SKG-IIIa cells measured after 8 days; conditions: 192 h
[32] = Cytotoxicity against human KR7251 cells measured after 8 days; conditions: KR7251, 192 h
[33] = Cytotoxicity against human COV362.4 cells measured after 8 days; conditions: COV362.4, 192 h

## C/C=C/Cn1cc(-c2ccc(C(=O)N3CCOCC3)cc2)c2cc[nH]c2c1=O
[1]
  IC50: 20 µM
[2]
  IC50: 20 µM
NB69
  IC50: 20 µM
[3]
  IC50: 11.6 µM
[4]
  IC50: 20 µM
[5]
  IC50: 20 µM
[6]
  IC50: 20 µM
NCI-H2052
  IC50: 20 µM
[7]
  IC50: 20 µM
[8]
  IC50: 20 µM
[9]
  IC50: 20 µM
PLC-PRF-5
  IC50: 20 µM
[10]
  IC50: 20 µM
[11]
  IC50: 20 µM
[12]
  IC50: 20 µM
[13]
  IC50: 20 µM
IGR-1
  IC50: 20 µM
CAL-54
  IC50: 20 µM
[14]
  IC50: 20 µM
HPAF-II
  IC50: 20 µM
[15]
  IC50: 20 µM
LN-18
  IC50: 20 µM
MC-38
  IC50: 16.7 µM
YAPC
  IC50: 20 µM
HMV-2 cell line
  IC50: 20 µM
[16]
  IC50: 20 µM
[17]
  IC50: 20 µM
SNU-475
  IC50: 20 µM
HEp-2
  IC50: 20 µM
KYSE-150 cell line
  IC50: 20 µM
KMS-11
  IC50: 12.4 µM
[18]
  IC50: 20 µM
Detroit 562
  IC50: 20 µM
[19]
  IC50: 20 µM
OAW-42
  IC50: 20 µM
[20]
  IC50: 20 µM
DOHH-2
  IC50: 16.1 µM
[21]
  IC50: 20 µM
KYSE-270
  IC50: 20 µM
[22]
  IC50: 20 µM
A2780
  IC50: 20 µM
EL4
  IC50: 20 µM
Skut1B
  IC50: 20 µM
[23]
  IC50: 20 µM
[24]
  IC50: 12 µM
SNU-449
  IC50: 20 µM
[25]
  IC50: 20 µM
[26]
  IC50: 20 µM
[27]
  IC50: 20 µM
[28]
  IC50: 20 µM
Huh-7
  IC50: 20 µM
[29]
  IC50: 20 µM
RCM-1
  IC50: 20 µM
[30]
  IC50: 20 µM
WM-115
  IC50: 20 µM
HuP-T4
  IC50: 20 µM
SK-N-DZ
  IC50: 20 µM
ACHN
  IC50: 20 µM
SNB-19
  IC50: 20 µM
[31]
  IC50: 20 µM
SKG-IIIa
  IC50: 20 µM
[32]
  IC50: 20 µM
[33]
  IC50: 20 µM

## C/C=C/Cn1cc(-c2ccc(C(C)(C)O)cc2OC)c2cc[nH]c2c1=O
[1]
  IC50: 20 µM
[2]
  IC50: 20 µM
NB69
  IC50: 20 µM
[3]
  IC50: 10.7 µM
[4]
  IC50: 20 µM
[5]
  IC50: 20 µM
[6]
  IC50: 20 µM
NCI-H2052
  IC50: 20 µM
[7]
  IC50: 20 µM
[8]
  IC50: 20 µM
[9]
  IC50: 20 µM
PLC-PRF-5
  IC50: 20 µM
[10]
  IC50: 20 µM
[11]
  IC50: 20 µM
[12]
  IC50: 20 µM
[13]
  IC50: 20 µM
IGR-1
  IC50: 20 µM
CAL-54
  IC50: 20 µM
[14]
  IC50: 20 µM
HPAF-II
  IC50: 20 µM
[15]
  IC50: 20 µM
LN-18
  IC50: 13.7 µM
MC-38
  IC50: 20 µM
YAPC
  IC50: 20 µM
HMV-2 cell line
  IC50: 20 µM
[16]
  IC50: 20 µM
[17]
  IC50: 20 µM
SNU-475
  IC50: 20 µM
HEp-2
  IC50: 20 µM
KYSE-150 cell line
  IC50: 20 µM
KMS-11
  IC50: 9.13 µM
[18]
  IC50: 20 µM
Detroit 562
  IC50: 20 µM
[19]
  IC50: 20 µM
OAW-42
  IC50: 20 µM
[20]
  IC50: 20 µM
DOHH-2
  IC50: 10.7 µM
[21]
  IC50: 20 µM
KYSE-270
  IC50: 20 µM
[22]
  IC50: 20 µM
A2780
  IC50: 20 µM
EL4
  IC50: 20 µM
Skut1B
  IC50: 20 µM
[23]
  IC50: 20 µM
[24]
  IC50: 20 µM
SNU-449
  IC50: 20 µM
[25]
  IC50: 20 µM
[26]
  IC50: 20 µM
[27]
  IC50: 20 µM
[28]
  IC50: 20 µM
Huh-7
  IC50: 20 µM
[29]
  IC50: 20 µM
RCM-1
  IC50: 20 µM
[30]
  IC50: 20 µM
WM-115
  IC50: 20 µM
HuP-T4
  IC50: 20 µM
SK-N-DZ
  IC50: 18.6 µM
ACHN
  IC50: 20 µM
SNB-19
  IC50: 20 µM
[31]
  IC50: 20 µM
SKG-IIIa
  IC50: 20 µM
[32]
  IC50: 20 µM
[33]
  IC50: 20 µM
